PubChem BioAssay AID206 (DTP/NCI, 2004)
Values joined by “and” are separate entries in the source; they are usually repeats but may differ in a detail not shown here. Identical values can stand only once. Records with an inconclusive call do not appear.

Tested on: nude mice, HT29 intrarenal xenograft, tumor weight T/C
Assay: NCI In Vivo Anticancer Drug Screen. Data for tumor model HT29;CX-1 Human Adenocarcinoma (MER+) (intrarenal inoculation) in NU/NU Swiss (nude) mice
Details: endpoint: mean tumor weight change, higher = larger tumour
In short: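 Endpoint measured as tumor size or survival; ratio reported is treated group over vehicle controls.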

[1] = dose: 40.0 mg/kg/injection, schedule: Q04DX004 (sc), vehicle: Klucel (hydroxypropylcellulose) (HPC)
[2] = dose: 2.0 mg/kg/injection, schedule: Q04DX004 (sc), vehicle: Klucel (hydroxypropylcellulose) (HPC)
[3] = dose: 75.0 mg/kg/injection, schedule: Q04DX004 (sc), vehicle: saline with Tween-80
[4] = dose: 150.0 mg/kg/injection, schedule: Q04DX004 (sc), vehicle: saline with Tween-80
[5] = dose: 300.0 mg/kg/injection, schedule: Q04DX004 (sc), vehicle: saline with Tween-80
[6] = dose: 600.0 mg/kg/injection, schedule: Q04DX004 (sc), vehicle: saline with Tween-80
[7] = dose: 1200.0 mg/kg/injection, schedule: Q04DX004 (sc), vehicle: saline with Tween-80

In the case of `Cc1cc(NCCN(C(C)C)C(C)C)nc(/N=C(\N)Nc2ccc(Cl)c(C(F)(F)F)c2)n1`, the T/C (dose: 20.0 mg/kg/injection, schedule: Q04DX004 (sc), vehicle: Klucel (hydroxypropylcellulose) (HPC)) is reported as 62 % of control, the T/C [1] is reported as 51 % of control and the T/C (dose: 80.0 mg/kg/injection, schedule: Q04DX004 (sc), vehicle: Klucel (hydroxypropylcellulose) (HPC)) is reported as 78 % of control. The T/C (dose: 160.0 mg/kg/injection, schedule: Q04DX004 (sc), vehicle: Klucel (hydroxypropylcellulose) (HPC)) was 62 % of control.

For `COC1=C(C)C(=O)C2=C(C1=O)C1C3CC4=C(C(=O)C(OC)=C(C)C4=O)C(CNC(=O)C(C)=O)N3C(C#N)C(C2)N1C` (configuration not stated), the T/C (dose: 1.0 mg/kg/injection, schedule: Q04DX004 (sc), vehicle: Klucel (hydroxypropylcellulose) (HPC)) was 99 % of control and the T/C [2] was 75 % of control.

With `CC1CN1C(=O)NCCCCCCNC(=O)N1CC1C` (configuration not stated) the T/C (dose: 10.0 mg/kg/injection, schedule: Q04DX004 (sc), vehicle: Klucel (hydroxypropylcellulose) (HPC)) was 36 % of control and the T/C [1] was 16 % of control.

In the case of `CC(=O)CC(C)=O.CC(=O)CC(C)=O.O=N[O-].O=N[O-].[Co]`, the T/C [3] is reported as 52 % of control, the T/C [4] is reported as 92 % of control and the T/C [5] is reported as 48 % of control.

`[N-]=[N+]=CC(=O)CCC(=O)C=[N+]=[N-]` was tested, and the T/C (dose: 36.0 mg/kg/injection, schedule: Q04DX004 (sc), vehicle: DMSO) was 85 % of control and 99 % of control and the T/C (dose: 72.0 mg/kg/injection, schedule: Q04DX004 (sc), vehicle: DMSO) was 79 % of control.

With `CN(C1=NS(=O)(=O)N=C(N(C)c2ccccc2)O1)c1ccccc1` the T/C (dose: 225.0 mg/kg/injection, schedule: Q04DX004 (sc), vehicle: Klucel (hydroxypropylcellulose) (HPC)) was 95 % of control, the T/C (dose: 450.0 mg/kg/injection, schedule: Q04DX004 (sc), vehicle: Klucel (hydroxypropylcellulose) (HPC)) was 153 % of control and the T/C (dose: 1800.0 mg/kg/injection, schedule: Q04DX004 (sc), vehicle: Klucel (hydroxypropylcellulose) (HPC)) was 168 % of control.

For `O=[n+]1c2ccccc2n([O-])c2ccccc21.[Cl][Ni][Cl]`, the T/C [3] was 92 % of control and the T/C [4] was 89 % of control.

For `Nc1n[n+](-c2ccc(Cl)cc2)no1`, the T/C (dose: 25.0 mg/kg/injection, schedule: Q04DX004 (sc), vehicle: water) was 95 % of control, the T/C (dose: 50.0 mg/kg/injection, schedule: Q04DX004 (sc), vehicle: water) was 121 % of control and the T/C (dose: 100.0 mg/kg/injection, schedule: Q04DX004 (sc), vehicle: water) was 102 % of control.

For `CCC(=O)O[C@H]1CC[C@H]2[C@@H]3CCC4=CC(=O)CC[C@]4(C)[C@H]3CC[C@]12C`, the T/C (dose: 300.0 mg/kg/injection, schedule: Q04DX004 (sc), vehicle: Klucel (hydroxypropylcellulose) (HPC)) was 59 % of control, the T/C (dose: 600.0 mg/kg/injection, schedule: Q04DX004 (sc), vehicle: Klucel (hydroxypropylcellulose) (HPC)) was 82 % of control and the T/C (dose: 1200.0 mg/kg/injection, schedule: Q04DX004 (sc), vehicle: Klucel (hydroxypropylcellulose) (HPC)) was 103 % of control. For the same compound, the T/C (dose: 2400.0 mg/kg/injection, schedule: Q04DX004 (sc), vehicle: Klucel (hydroxypropylcellulose) (HPC)) was 52 % of control.

For `O=C1C=C2C(=CCOC2O)O1` (configuration not stated), the T/C [2] was 53 % of control and the T/C (dose: 4.0 mg/kg/injection, schedule: Q04DX004 (sc), vehicle: Klucel (hydroxypropylcellulose) (HPC)) was 87 % of control.

With `[Cl][Pt+2][Cl].[NH-]C1CCC1.[NH2-]` the T/C (dose: 6.25 mg/kg/injection, schedule: Q04DX004 (sc), vehicle: suspension in saline) was 54 % of control, the T/C (dose: 12.5 mg/kg/injection, schedule: Q04DX004 (sc), vehicle: suspension in saline) was 41 % of control and the T/C (dose: 25.0 mg/kg/injection, schedule: Q04DX004 (sc), vehicle: suspension in saline) was 46 % of control.

For `CC1(C)CC(=O)C(CSC(=O)c2ccccc2)C(=O)C1`, the T/C (dose: 25.0 mg/kg/injection, schedule: Q01DX010 (sc), vehicle: Klucel (hydroxypropylcellulose) (HPC)) was 79 % of control and the T/C (dose: 100.0 mg/kg/injection, schedule: Q01DX010 (sc), vehicle: Klucel (hydroxypropylcellulose) (HPC)) was 120 % of control.

`CN1N=C(N)c2cn(C3OC(COP(=O)(O)O)C(O)C3O)c3ncnc1c23` (configuration not stated) was tested, and the T/C (dose: 25.0 mg/kg/injection, schedule: Q01DX010 (sc), vehicle: water) was 156 % of control and the T/C (dose: 50.0 mg/kg/injection, schedule: Q01DX010 (sc), vehicle: water) was 182 % of control.

In the case of `CC(=O)O[C@H]1C(=O)[C@@]2(C)[C@H]([C@H](OC(=O)c3ccccc3)[C@]3(O)C[C@H](OC(=O)[C@H](O)[C@@H](NC(=O)c4ccccc4)c4ccccc4)C(C)=C1C3(C)C)[C@]1(OC(C)=O)CO[C@@H]1C[C@@H]2O`, the T/C (dose: 400.0 mg/kg/injection, schedule: Q01DX010 (sc), vehicle: Klucel (hydroxypropylcellulose) (HPC)) is reported as 3 % of control and 12 % of control and 16 % of control.

`N#Cc1cn(C2OC(CO)C(O)C2O)c2ncnc(N)c12` (configuration not stated) was tested, and the T/C (dose: 0.13 mg/kg/injection, schedule: Q01DX010 (sc), vehicle: saline) was 81 % of control and the T/C (dose: 0.25 mg/kg/injection, schedule: Q01DX010 (sc), vehicle: saline) was 171 % of control.

`CO[C@H](/C(C)=C/C=C/C(C)=C/c1coc(C)n1)[C@H](C)[C@H]1C[C@@H](O)[C@@]2(C)O[C@H]2/C=C/[C@@H](C)[C@@H]2C[C@@H](CC(=O)O2)C[C@H]2O[C@@H]2C(=O)O1` was tested, and the T/C (dose: 0.12 mg/kg/injection, schedule: Q04DX004 (sc), vehicle: Klucel (hydroxypropylcellulose) (HPC)) was 87 % of control, the T/C (dose: 0.25 mg/kg/injection, schedule: Q04DX004 (sc), vehicle: Klucel (hydroxypropylcellulose) (HPC)) was 45 % of control and the T/C (dose: 0.5 mg/kg/injection, schedule: Q04DX004 (sc), vehicle: Klucel (hydroxypropylcellulose) (HPC)) was 30 % of control.

In the case of `[I][Hg][CH2]C1COC([CH2][Hg][I])CO1` (configuration not stated), the T/C [5] is reported as 54 % of control, the T/C [6] is reported as 55 % of control and the T/C [7] is reported as 57 % of control. The T/C (dose: 2400.0 mg/kg/injection, schedule: Q04DX004 (sc), vehicle: saline with Tween-80) was 32 % of control.

`O=C(C/C(=N\C(=S)Nc1cc(C(F)(F)F)ccc1Cl)NO)N1CCCC1` was tested, and the T/C [3] was 51 % of control, the T/C [4] was 49 % of control and the T/C [5] was 80 % of control. For the same compound, the T/C [6] was 70 % of control.

With `C[Si](C)(C)O/C=C1/CCOC1=O` the T/C (dose: 100.0 mg/kg/injection, schedule: Q04DX004 (sc), vehicle: suspension in saline) was 98 % of control, the T/C (dose: 200.0 mg/kg/injection, schedule: Q04DX004 (sc), vehicle: suspension in saline) was 93 % of control and the T/C (dose: 800.0 mg/kg/injection, schedule: Q04DX004 (sc), vehicle: suspension in saline) was 107 % of control.

For `Cc1c(N)nc([C@H](CC(N)=O)NC[C@H](N)C(N)=O)nc1C(=O)N[C@H](C(=O)N[C@H](C)[C@@H](O)CC(=O)N[C@H](C(=O)NC(O[C@@H]1O[C@@H](C)[C@@H](N)[C@@H](O)[C@H]1O)C(O)c1nc(-c2nc(C(=O)NCCCCN)cs2)cs1)[C@@H](C)O)[C@@H](O[C@@H]1O[C@@H](CO)[C@@H](O)[C@H](O)[C@@H]1O[C@H]1O[C@H](CO)[C@@H](O)[C@H](OC(N)=O)[C@@H]1O)c1c[nH]cn1` (some centres not stated), the T/C (dose: 4.0 mg/kg/injection, schedule: Q04DX004 (sc), vehicle: saline) was 104 % of control, the T/C (dose: 8.0 mg/kg/injection, schedule: Q04DX004 (sc), vehicle: saline) was 68 % of control and the T/C (dose: 16.0 mg/kg/injection, schedule: Q04DX004 (sc), vehicle: saline) was 73 % of control. The T/C (dose: 32.0 mg/kg/injection, schedule: Q04DX004 (sc), vehicle: saline) was 28 % of control.

`CN(C)CCN1C(=O)c2cccc3cc(N)cc(c23)C1=O` was tested, and the T/C (dose: 64.0 mg/kg/injection, schedule: Q04DX004 (sc), vehicle: saline with Tween-80) was 70 % of control.

For `CC(=O)Oc1c(C)[nH]ccc1=O`, the T/C (dose: 600.0 mg/kg/injection, schedule: Q04DX004 (sc), vehicle: suspension in saline) was 112 % of control and the T/C (dose: 1200.0 mg/kg/injection, schedule: Q04DX004 (sc), vehicle: suspension in saline) was 77 % of control.

In the case of `NC(C/[N+]([O-])=N/O)C(=O)O` (configuration not stated), the T/C (dose: 50.0 mg/kg/injection, schedule: Q01DX010 (sc), vehicle: saline) is reported as 186 % of control and the T/C (dose: 100.0 mg/kg/injection, schedule: Q01DX010 (sc), vehicle: saline) is reported as 53 % of control.

With `NC(CCC(=O)NC(CS)C(=O)NCC(=O)O)C(=O)O` (configuration not stated) the T/C (dose: 150.0 mg/kg/injection, schedule: Q04DX004 (sc), vehicle: saline) was 78 % of control, the T/C (dose: 300.0 mg/kg/injection, schedule: Q04DX004 (sc), vehicle: saline) was 168 % of control and the T/C (dose: 600.0 mg/kg/injection, schedule: Q04DX004 (sc), vehicle: saline) was 87 % of control.

In the case of `CCOC(=O)C(CC(C)C)NC(=O)C(Cc1ccc(N(CCCl)CCCl)cc1)NC(C)=O` (configuration not stated), the T/C (dose: 12.5 mg/kg/injection, schedule: Q01DX010 (sc), vehicle: saline with Tween-80) is reported as 66 % of control and 87 % of control, the T/C (dose: 400.0 mg/kg/injection, schedule: Q04DX004 (sc), vehicle: saline with Tween-80) is reported as 62 % of control and the T/C (dose: 800.0 mg/kg/injection, schedule: Q04DX004 (sc), vehicle: saline with Tween-80) is reported as 32 % of control. The T/C [7] was 29 % of control.
